# Test results taken from US20020035061A1, “COMPOSITIONS AND METHODS FOR TREATING INFECTIONS USING CATIONIC PEPTIDES ALONE OR IN COMBINATION WITH ANTIBIOTICS” (priority 1996, published 2002).
# “And” between values parts separate entries of the source, which are not always exact repeats. Identical values can stand only once. Like-named read-outs stand apart in the source and are kept apart here.
# How the values were obtained:
# Test in all cases: microbe, parasite or virus in culture
# Assay type in all cases: cell-based
# [1] = tested on: microorganisms with acquired resistance; settings: for Peptide MIC: in µg/mL
# [2] = tested on: inherently resistant microorganisms; settings: for MIC: Staphylococcus aureus, MRSA
# bacterial isolates = settings: for FIC: combination with Ampicillin
# [3] = Acinetobacter calcoaceticus, read-out: Piperacillin MIC Alone, A. calcoaceticus 2
# [4] = Acinetobacter calcoaceticus, read-out: Piperacillin MIC Alone, A. calcoaceticus 7
# [5] = Enterobacter cloacae, read-out: Piperacillin MIC Alone, E. cloacae 9
# [6] = Enterobacter cloacae, read-out: Piperacillin MIC Alone, E. cloacae 10
# [7] = Enterobacter cloacae, read-out: Piperacillin MIC Alone, E. cloacae 13
# [8] = Enterobacter cloacae, read-out: Piperacillin MIC Alone, E. cloacae 16
# [9] = Enterobacter cloacae, read-out: Piperacillin MIC Alone, E. cloacae 17
# [10] = Escherichia coli, read-out: Piperacillin MIC Alone, E. coli 1
# [11] = Haemophilus influenzae, read-out: Piperacillin MIC Alone, H. influenzae 1
# [12] = Pseudomonas aeruginosa, read-out: Piperacillin MIC Alone, P. aeruginosa 7
# [13] = Pseudomonas aeruginosa, read-out: Piperacillin MIC Alone, P. aeruginosa 15
# [14] = Pseudomonas aeruginosa, read-out: Piperacillin MIC Alone, P. aeruginosa 22
# [15] = Serratia marcescens, read-out: Piperacillin MIC Alone, S. marcescens SB1
# [16] = Stenotrophomonas maltophilia, read-out: Piperacillin MIC Alone, S. maltophilia 2
# [17] = Stenotrophomonas maltophilia, read-out: Piperacillin MIC Alone, S. maltophilia 3
# [18] = Stenotrophomonas maltophilia, read-out: Piperacillin MIC Alone, S. maltophilia 11
# [19] = Stenotrophomonas maltophilia, read-out: Piperacillin MIC Alone, S. maltophilia 14
# [20] = Stenotrophomonas maltophilia, read-out: Piperacillin MIC Alone, S. maltophilia 34
# [21] = Stenotrophomonas maltophilia, read-out: Piperacillin MIC Alone, S. maltophilia 35
molecule,measurement,setting,value
COc1cccc(OC)c1C(=O)N[C@@H]1C(=O)N2[C@@H]1SC(C)(C)[C@@H]2C(=O)O [Methicillin],MIC comb. (antibiotic agent),"[1]; S. haemolyticus, with MBI 26",0.25 µg/mL
same,MIC,"[1]; Staphylococcus haemolyticus, read-out: MIC alone (antibiotic agent), S. haemolyticus",64 µg/mL
CCN1CCN(C(=O)N[C@@H](C(=O)N[C@@H]2C(=O)N3[C@@H]2SC(C)(C)[C@@H]3C(=O)O)c2ccccc2)C(=O)C1=O [Piperacillin],Piperacillin MIC + Peptide,"[2]; S. aureus MRSA, peptide MBI 11F3CN",4 µg/mL
same,MIC,"[2]; read-out: Piperacillin MIC + Peptide, S. aureus MRSA, peptide MBI 11B7CN",0.5 µg/mL
same,MIC,"[2]; read-out: Piperacillin MIC + Peptide, S. aureus MRSA, peptide MBI 11D18CN",2 µg/mL
same,MIC,"[2]; read-out: Piperacillin MIC + Peptide, S. aureus MRSA, peptide MBI 11E3CN",2 µg/mL
same,MIC,"[2]; read-out: Piperacillin MIC + Peptide, S. aureus MRSA, peptide MBI 11F3CN",2 µg/mL
same,MIC,"[2]; read-out: Piperacillin MIC + Peptide, S. aureus MRSA, peptide MBI 11F4CN",4 µg/mL
same,MIC,"[2]; read-out: Piperacillin MIC + Peptide, S. aureus MRSA, peptide MBI 11G7CN",0.5 µg/mL
same,MIC,"[2]; read-out: Piperacillin MIC + Peptide, S. aureus MRSA, peptide MBI 21A2",0.5 µg/mL
same,MIC,"[2]; read-out: Piperacillin MIC + Peptide, S. aureus MRSA, peptide MBI 26",0.5 µg/mL
same,MIC,"[2]; read-out: Piperacillin MIC + Peptide, S. aureus MRSA, peptide MBI 29",4 µg/mL
same,MIC,"[2]; read-out: Piperacillin MIC Alone, S. aureus MRSA",128 µg/mL
same,MIC,[1]; [3],> 512 µg/mL
same,MIC,[1]; [4],32 µg/mL
same,MIC,[1]; [5],> 128 µg/mL
same,MIC,[1]; [6],> 128 µg/mL
same,MIC,[1]; [7],128 µg/mL
same,MIC,[1]; [8],> 512 µg/mL
same,MIC,[1]; [9],> 512 µg/mL
same,MIC,"[1]; Enterobacter cloacae, read-out: Piperacillin MIC Alone, E. cloacae 19",64 µg/mL
same,MIC,[1]; [10],> 128 µg/mL
same,Piperacillin MIC Alone,[1]; H. influenzae 1,32 µg/mL
same,MIC,[1]; [11],64 µg/mL
same,Piperacillin MIC Alone,[1]; P. aeruginosa 7,>128 µg/mL
same,Piperacillin MIC Alone,[1]; P. aeruginosa 23,>128 µg/mL and 256 µg/mL
same,MIC comb. (antibiotic agent),"[1]; P. aeruginosa, with MBI 27",64 µg/mL
same,MIC comb. (antibiotic agent),"[1]; P. aeruginosa, with MBI 29",64 µg/mL
same,MIC,"[1]; Pseudomonas aeruginosa, read-out: MIC alone (antibiotic agent), P. aeruginosa",128 µg/mL
same,MIC,[1]; [12],128 µg/mL
same,MIC,"[1]; Pseudomonas aeruginosa, read-out: Piperacillin MIC Alone, P. aeruginosa 12",> 128 µg/mL
same,MIC,[1]; [13],> 128 µg/mL
same,MIC,[1]; [14],> 128 µg/mL
same,MIC,"[1]; Pseudomonas aeruginosa, read-out: Piperacillin MIC Alone, P. aeruginosa 23",128 µg/mL
same,MIC,"[1]; Pseudomonas aeruginosa, read-out: Piperacillin MIC Alone, P. aeruginosa 24",> 512 µg/mL
same,MIC,"[1]; Pseudomonas aeruginosa, read-out: Piperacillin MIC Alone, P. aeruginosa 26",128 µg/mL
same,MIC comb. (antibiotic agent),"[1]; S. aureus, with MBI 27",64 µg/mL
same,Piperacillin MIC Alone,[1]; S. maltophilia 2,64 µg/mL
same,Piperacillin MIC Alone,[1]; S. maltophilia 4,128 µg/mL
same,Piperacillin MIC Alone,[1]; S. maltophilia 35,>512 µg/mL
same,MIC comb. (antibiotic agent),"[1]; S. maltophilia, with MBI 26",16 µg/mL
same,MIC,[1]; [15],64 µg/mL
same,MIC,"[1]; Staphylococcus aureus, read-out: MIC alone (antibiotic agent), S. aureus",128 µg/mL
same,MIC,"[1]; Stenotrophomonas maltophilia, read-out: MIC alone (antibiotic agent), S. maltophilia",> 512 µg/mL
same,MIC,[1]; [16],32 µg/mL
same,MIC,[1]; [17],64 µg/mL
same,MIC,"[1]; Stenotrophomonas maltophilia, read-out: Piperacillin MIC Alone, S. maltophilia 4",64 µg/mL
same,MIC,[1]; [18],32 µg/mL
same,MIC,[1]; [19],128 µg/mL
same,MIC,[1]; [20],> 512 µg/mL
same,MIC,[1]; [21],> 256 µg/mL
same,MIC,"[1]; Stenotrophomonas maltophilia, read-out: Piperacillin MIC Alone, S. maltophilia 41",> 512 µg/mL
same,Piperacillin MIC Alone,bacterial isolates; A. calcoaceticus 3,128 µg/mL
same,MIC,bacterial isolates; [3],> 512 µg/mL
same,MIC,"bacterial isolates; Acinetobacter calcoaceticus, read-out: Piperacillin MIC Alone, A. calcoaceticus 3",64 µg/mL
same,MIC,bacterial isolates; [4],32 µg/mL
same,MIC,"bacterial isolates; Acinetobacter calcoaceticus, read-out: Piperacillin MIC Alone, A. calcoaceticus 8",64 µg/mL
same,MIC,"bacterial isolates; Enterobacter cloacae, read-out: Piperacillin MIC Alone, E. cloacae 6",> 128 µg/mL
same,MIC,bacterial isolates; [5],> 128 µg/mL
same,MIC,bacterial isolates; [6],> 128 µg/mL
same,MIC,bacterial isolates; [7],128 µg/mL
same,MIC,bacterial isolates; [8],> 512 µg/mL
same,MIC,bacterial isolates; [9],> 512 µg/mL
same,MIC,bacterial isolates; [10],> 128 µg/mL
same,Piperacillin MIC Alone,bacterial isolates; H. influenzae 1,32 µg/mL
same,MIC,bacterial isolates; [11],64 µg/mL
same,MIC,"bacterial isolates; Haemophilus influenzae, read-out: Piperacillin MIC Alone, H. influenzae 3",0.5 µg/mL
same,MIC,"bacterial isolates; Haemophilus influenzae, read-out: Piperacillin MIC Alone, H. influenzae SB1",0.5 µg/mL
same,Piperacillin MIC Alone,bacterial isolates; P. aeruginosa 7,128 µg/mL
same,Piperacillin MIC Alone,bacterial isolates; P. aeruginosa 41,32 µg/mL
same,MIC,bacterial isolates; [12],> 128 µg/mL
same,MIC,bacterial isolates; [13],> 128 µg/mL
same,MIC,bacterial isolates; [14],> 128 µg/mL
same,MIC,"bacterial isolates; Pseudomonas aeruginosa, read-out: Piperacillin MIC Alone, P. aeruginosa 28",> 512 µg/mL
same,MIC,"bacterial isolates; Pseudomonas aeruginosa, read-out: Piperacillin MIC Alone, P. aeruginosa 29",512 µg/mL
same,MIC,"bacterial isolates; Pseudomonas aeruginosa, read-out: Piperacillin MIC Alone, P. aeruginosa 32",64 µg/mL
same,MIC,"bacterial isolates; Pseudomonas aeruginosa, read-out: Piperacillin MIC Alone, P. aeruginosa 41",64 µg/mL
same,Piperacillin MIC Alone,bacterial isolates; S. aureus 19 MRSA,>128 µg/mL
same,Piperacillin MIC Alone,bacterial isolates; S. aureus SB3MRSA,128 µg/mL
same,MIC,bacterial isolates; [15],64 µg/mL
same,MIC,"bacterial isolates; Staphylococcus aureus, MRSA, read-out: Piperacillin MIC Alone, S. aureus 11 MRSA",> 128 µg/mL
same,MIC,"bacterial isolates; Staphylococcus aureus, MRSA, read-out: Piperacillin MIC Alone, S. aureus 18 MRSA",> 128 µg/mL
same,MIC,"bacterial isolates; Staphylococcus aureus, MRSA, read-out: Piperacillin MIC Alone, S. aureus 19 MRSA",128 µg/mL
same,MIC,"bacterial isolates; Staphylococcus aureus, read-out: Piperacillin MIC Alone, S. aureus SB2MRSA",128 µg/mL
same,MIC,"bacterial isolates; Staphylococcus aureus, read-out: Piperacillin MIC Alone, S. aureus SB3MRSA",> 128 µg/mL
same,MIC,bacterial isolates; [16],64 µg/mL
same,MIC,bacterial isolates; [17],128 µg/mL
same,MIC,"bacterial isolates; Stenotrophomonas maltophilia, read-out: Piperacillin MIC Alone, S. maltophilia 5",> 128 µg/mL
same,MIC,"bacterial isolates; Stenotrophomonas maltophilia, read-out: Piperacillin MIC Alone, S. maltophilia 6",> 128 µg/mL
same,MIC,"bacterial isolates; Stenotrophomonas maltophilia, read-out: Piperacillin MIC Alone, S. maltophilia 9",> 128 µg/mL
same,MIC,bacterial isolates; [18],> 128 µg/mL
same,MIC,"bacterial isolates; Stenotrophomonas maltophilia, read-out: Piperacillin MIC Alone, S. maltophilia 13",> 128 µg/mL
same,MIC,bacterial isolates; [19],128 µg/mL
same,MIC,bacterial isolates; [20],> 512 µg/mL
same,MIC,bacterial isolates; [21],> 256 µg/mL
same,MIC,"bacterial isolates; Stenotrophomonas maltophilia, read-out: Piperacillin MIC Alone, S. maltophilia 38",> 512 µg/mL
same,MIC,"bacterial isolates; Stenotrophomonas maltophilia, read-out: Piperacillin MIC Alone, S. maltophilia 40",> 512 µg/mL
same,MIC,"bacterial isolates; Stenotrophomonas maltophilia, read-out: Piperacillin MIC Alone, S. maltophilia 42",> 512 µg/mL
GKPRPYSPIPTSPRPIRY [MBI 31],Peptide MIC,"[1]; S. aureus, combination with Erythromycin",0.125
same,FIC,bacterial isolates; S. epidermidis SE8416,0.52
same,FIC,bacterial isolates; S. epidermidis SH8575,0.27
same,FIC,bacterial isolates; S. haemolyticus SA7797,0.50
same,FIC,bacterial isolates; S. haemolyticus SA7817,0.26
same,FIC,bacterial isolates; S. haemolyticus SA7818,0.52
same,FIC,bacterial isolates; S. haemolyticus SA7834,0.52
same,FIC,bacterial isolates; S. haemolyticus SA7835,0.50
same,FIC,bacterial isolates; S. haemolyticus SH8597,1.00
KKWWRRVLKGLSSGPALSNV [MBI 21A10],Peptide MIC,"[1]; S. aureus, combination with Mupirocin",32
